The target of test [1] is 5-hydroxytryptamine receptor 4 (Cavia porcellus) (UniProt O70528). In words: Displacement of [3H]GR113808 from 5HT4R in guinea pig striatal membranes at 10^-6 M. In kind it is cell membranes. The following applies: Striatum, Membrane.
Test [2] shares this target. In words: Displacement of [3H]GR113808 from 5HT4R in guinea pig striatal membranes at 10^-8 M. In kind it is cell membranes. The following applies: Striatum, Membrane. A general note: In a radioligand displacement assay an active substance lowers the binding of a labelled ligand.
Test [3] deals with 5-hydroxytryptamine receptor 4 (Cavia porcellus, UniProt O70528). In words: Displacement of [3H]GR113808 from 5HT4R in guinea pig striatal membranes. In kind it is cell membranes, Striatum, Membrane.
Chain of 5-hydroxytryptamine receptor 4 (Cavia porcellus, UniProt O70528) (O70528 whole entry): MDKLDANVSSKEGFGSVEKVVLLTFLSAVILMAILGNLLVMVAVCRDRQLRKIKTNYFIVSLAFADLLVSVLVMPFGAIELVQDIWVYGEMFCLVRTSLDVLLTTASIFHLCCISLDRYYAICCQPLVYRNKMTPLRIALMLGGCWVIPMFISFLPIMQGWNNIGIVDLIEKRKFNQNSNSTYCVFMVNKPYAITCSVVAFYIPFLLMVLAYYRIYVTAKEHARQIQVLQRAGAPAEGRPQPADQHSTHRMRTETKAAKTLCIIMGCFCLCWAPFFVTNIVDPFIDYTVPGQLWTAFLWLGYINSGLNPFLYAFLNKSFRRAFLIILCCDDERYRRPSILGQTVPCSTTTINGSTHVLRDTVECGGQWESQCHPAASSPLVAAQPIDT
In test [4] the target is T1, 5-hydroxytryptamine receptor 4 (Homo sapiens, UniProt Q13639). In words: Intrinsic activity at human 5HT4R.
T1 sequence (Q13639 whole entry): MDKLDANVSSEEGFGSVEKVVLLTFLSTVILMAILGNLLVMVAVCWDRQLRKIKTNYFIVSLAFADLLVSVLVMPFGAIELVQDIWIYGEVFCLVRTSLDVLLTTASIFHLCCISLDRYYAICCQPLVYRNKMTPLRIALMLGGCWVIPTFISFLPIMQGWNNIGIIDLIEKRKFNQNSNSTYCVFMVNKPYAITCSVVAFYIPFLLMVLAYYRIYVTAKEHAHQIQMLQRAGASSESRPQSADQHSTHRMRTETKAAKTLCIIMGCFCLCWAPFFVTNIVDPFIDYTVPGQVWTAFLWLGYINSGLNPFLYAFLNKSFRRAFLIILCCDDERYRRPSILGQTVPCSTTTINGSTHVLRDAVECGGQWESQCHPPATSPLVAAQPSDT
Test [5] concerns the target 5-hydroxytryptamine receptor 6 (Homo sapiens, UniProt P50406). In words: Binding affinity to human 5HT6.
The target of test [6] is 5-hydroxytryptamine receptor 7 (Homo sapiens, UniProt P34969). In words: Binding affinity to human 5HT7.
Chain of 5-hydroxytryptamine receptor 7 (P34969 whole entry): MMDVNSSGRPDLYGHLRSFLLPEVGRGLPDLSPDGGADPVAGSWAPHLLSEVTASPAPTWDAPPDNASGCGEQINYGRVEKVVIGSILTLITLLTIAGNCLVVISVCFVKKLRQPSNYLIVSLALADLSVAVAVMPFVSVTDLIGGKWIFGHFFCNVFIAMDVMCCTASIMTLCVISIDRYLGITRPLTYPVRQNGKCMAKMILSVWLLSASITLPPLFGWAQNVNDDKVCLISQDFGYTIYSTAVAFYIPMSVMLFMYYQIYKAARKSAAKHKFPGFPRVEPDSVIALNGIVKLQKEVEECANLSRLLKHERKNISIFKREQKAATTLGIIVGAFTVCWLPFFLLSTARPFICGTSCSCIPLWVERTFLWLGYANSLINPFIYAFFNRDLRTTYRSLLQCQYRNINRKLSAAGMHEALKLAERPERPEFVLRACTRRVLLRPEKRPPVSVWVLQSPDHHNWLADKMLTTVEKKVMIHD
Test [7] has as its target 5-hydroxytryptamine receptor 1B (Homo sapiens, UniProt P28222). In words: Binding affinity to human 5HT1B.
For test [8], the target named is 5-hydroxytryptamine receptor 2A (Homo sapiens, UniProt P28223). In words: Binding affinity to human 5HT2A.
Chain of 5-hydroxytryptamine receptor 2A (P28223 whole entry): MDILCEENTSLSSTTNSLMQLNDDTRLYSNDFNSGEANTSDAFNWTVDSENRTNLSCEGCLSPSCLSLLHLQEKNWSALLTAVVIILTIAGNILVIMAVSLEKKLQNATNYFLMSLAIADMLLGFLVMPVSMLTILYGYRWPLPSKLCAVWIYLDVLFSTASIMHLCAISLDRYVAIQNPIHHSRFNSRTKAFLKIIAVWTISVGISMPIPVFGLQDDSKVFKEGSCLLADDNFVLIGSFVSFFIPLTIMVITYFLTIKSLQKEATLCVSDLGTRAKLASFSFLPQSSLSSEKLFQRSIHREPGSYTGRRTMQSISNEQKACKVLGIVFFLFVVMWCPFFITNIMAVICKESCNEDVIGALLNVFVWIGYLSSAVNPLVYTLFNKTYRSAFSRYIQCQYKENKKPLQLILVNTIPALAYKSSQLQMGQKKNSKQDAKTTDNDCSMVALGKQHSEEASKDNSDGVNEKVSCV
Test [9] addresses T2, 5-hydroxytryptamine receptor 3A (Homo sapiens, UniProt P46098).
T2 sequence (P46098 whole entry): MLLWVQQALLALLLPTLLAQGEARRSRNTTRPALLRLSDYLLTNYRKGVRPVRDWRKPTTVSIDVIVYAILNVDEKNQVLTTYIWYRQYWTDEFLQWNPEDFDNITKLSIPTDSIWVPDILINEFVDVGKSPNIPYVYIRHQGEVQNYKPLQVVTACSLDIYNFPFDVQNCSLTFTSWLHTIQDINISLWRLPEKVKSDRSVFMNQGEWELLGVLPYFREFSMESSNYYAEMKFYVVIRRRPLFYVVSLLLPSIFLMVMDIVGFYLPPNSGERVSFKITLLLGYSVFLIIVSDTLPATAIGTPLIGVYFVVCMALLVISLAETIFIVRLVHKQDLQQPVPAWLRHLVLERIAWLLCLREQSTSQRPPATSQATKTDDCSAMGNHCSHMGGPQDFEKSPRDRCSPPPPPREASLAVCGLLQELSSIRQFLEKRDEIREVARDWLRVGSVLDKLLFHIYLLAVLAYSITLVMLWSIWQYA
In words: Binding affinity to human 5HT3.

Test [10] has as its target T3, 5-hydroxytryptamine receptor 2C (Homo sapiens, UniProt P28335).
T3 sequence (P28335 whole entry): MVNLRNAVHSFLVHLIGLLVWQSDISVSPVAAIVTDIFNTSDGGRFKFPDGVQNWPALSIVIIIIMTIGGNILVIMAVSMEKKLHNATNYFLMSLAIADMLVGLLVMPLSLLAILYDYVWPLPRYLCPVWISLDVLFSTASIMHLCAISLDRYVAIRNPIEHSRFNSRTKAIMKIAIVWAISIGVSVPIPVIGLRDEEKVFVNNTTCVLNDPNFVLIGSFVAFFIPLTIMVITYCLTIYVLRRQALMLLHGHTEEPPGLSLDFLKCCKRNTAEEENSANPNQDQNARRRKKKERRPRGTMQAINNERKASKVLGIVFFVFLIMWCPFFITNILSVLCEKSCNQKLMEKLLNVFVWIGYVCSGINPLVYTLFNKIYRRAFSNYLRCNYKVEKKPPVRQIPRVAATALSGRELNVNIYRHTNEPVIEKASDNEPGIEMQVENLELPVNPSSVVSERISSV
In words: Binding affinity to human 5HT2C.

For test [11], the target named is 5-hydroxytryptamine receptor 5A (Homo sapiens, UniProt P47898). In words: Binding affinity to human 5HT5A.
Chain of 5-hydroxytryptamine receptor 5A (P47898 whole entry): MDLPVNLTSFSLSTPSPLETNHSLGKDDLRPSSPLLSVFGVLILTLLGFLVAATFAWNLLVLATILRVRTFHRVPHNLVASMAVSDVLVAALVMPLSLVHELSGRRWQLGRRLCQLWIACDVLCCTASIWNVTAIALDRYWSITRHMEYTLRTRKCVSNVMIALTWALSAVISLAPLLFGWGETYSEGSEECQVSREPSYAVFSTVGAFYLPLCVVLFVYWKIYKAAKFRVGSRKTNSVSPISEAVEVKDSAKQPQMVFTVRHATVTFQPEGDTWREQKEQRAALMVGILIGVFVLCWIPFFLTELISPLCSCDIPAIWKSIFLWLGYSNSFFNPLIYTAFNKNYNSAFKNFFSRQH
Test [12] deals with T1, 5-hydroxytryptamine receptor 4. In words: Binding affinity to human 5HT4R.
Test [13] deals with 5-hydroxytryptamine receptor 2B (Homo sapiens, UniProt P41595). In words: Binding affinity to human 5HT2B.
Chain of 5-hydroxytryptamine receptor 2B (P41595 whole entry): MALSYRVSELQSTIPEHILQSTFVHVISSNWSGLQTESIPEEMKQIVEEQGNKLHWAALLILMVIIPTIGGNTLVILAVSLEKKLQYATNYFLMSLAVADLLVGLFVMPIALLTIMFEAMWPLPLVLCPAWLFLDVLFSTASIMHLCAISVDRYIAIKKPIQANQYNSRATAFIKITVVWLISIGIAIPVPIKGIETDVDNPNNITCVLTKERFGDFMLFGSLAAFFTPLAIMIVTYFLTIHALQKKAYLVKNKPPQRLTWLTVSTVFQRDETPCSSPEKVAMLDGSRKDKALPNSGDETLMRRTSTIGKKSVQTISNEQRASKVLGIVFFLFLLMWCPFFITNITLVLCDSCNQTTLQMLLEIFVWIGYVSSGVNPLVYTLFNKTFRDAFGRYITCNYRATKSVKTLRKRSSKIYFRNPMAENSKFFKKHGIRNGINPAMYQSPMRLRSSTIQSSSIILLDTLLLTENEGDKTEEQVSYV
Test [14] concerns the target T4, 5-hydroxytryptamine receptor 1A (Homo sapiens, UniProt P08908).
T4 sequence (P08908 whole entry): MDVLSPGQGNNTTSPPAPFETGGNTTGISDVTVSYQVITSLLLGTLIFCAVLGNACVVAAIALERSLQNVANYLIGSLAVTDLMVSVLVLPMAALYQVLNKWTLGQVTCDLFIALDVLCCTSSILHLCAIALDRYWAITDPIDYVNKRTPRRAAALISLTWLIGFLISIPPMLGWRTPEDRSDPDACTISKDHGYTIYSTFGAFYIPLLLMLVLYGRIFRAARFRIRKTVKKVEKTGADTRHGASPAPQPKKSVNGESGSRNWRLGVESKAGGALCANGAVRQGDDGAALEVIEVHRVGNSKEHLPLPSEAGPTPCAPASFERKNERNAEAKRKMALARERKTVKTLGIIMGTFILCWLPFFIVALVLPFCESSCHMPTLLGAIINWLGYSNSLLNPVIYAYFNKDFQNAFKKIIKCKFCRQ
In words: Binding affinity to human 5HT1A.

The target in test [15] is 5-hydroxytryptamine receptor 1D (Homo sapiens, UniProt P28221). In words: Binding affinity to human 5HT1D.
Chain of 5-hydroxytryptamine receptor 1D (P28221 whole entry): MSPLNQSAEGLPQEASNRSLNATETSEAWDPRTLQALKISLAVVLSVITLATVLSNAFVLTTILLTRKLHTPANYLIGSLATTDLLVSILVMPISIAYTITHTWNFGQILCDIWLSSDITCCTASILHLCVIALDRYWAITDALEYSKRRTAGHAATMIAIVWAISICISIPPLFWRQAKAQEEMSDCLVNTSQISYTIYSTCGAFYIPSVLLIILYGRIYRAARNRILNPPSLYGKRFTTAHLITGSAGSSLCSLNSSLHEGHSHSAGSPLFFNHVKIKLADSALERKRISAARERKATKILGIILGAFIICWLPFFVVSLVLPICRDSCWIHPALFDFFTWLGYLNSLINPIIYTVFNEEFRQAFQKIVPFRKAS

Structures are written as SMILES.

Chain of 5-hydroxytryptamine receptor 4 (Cavia porcellus) (O70528 whole entry): as the sequence (O70528 whole entry) above
Chain of 5-hydroxytryptamine receptor 6 (P50406 whole entry): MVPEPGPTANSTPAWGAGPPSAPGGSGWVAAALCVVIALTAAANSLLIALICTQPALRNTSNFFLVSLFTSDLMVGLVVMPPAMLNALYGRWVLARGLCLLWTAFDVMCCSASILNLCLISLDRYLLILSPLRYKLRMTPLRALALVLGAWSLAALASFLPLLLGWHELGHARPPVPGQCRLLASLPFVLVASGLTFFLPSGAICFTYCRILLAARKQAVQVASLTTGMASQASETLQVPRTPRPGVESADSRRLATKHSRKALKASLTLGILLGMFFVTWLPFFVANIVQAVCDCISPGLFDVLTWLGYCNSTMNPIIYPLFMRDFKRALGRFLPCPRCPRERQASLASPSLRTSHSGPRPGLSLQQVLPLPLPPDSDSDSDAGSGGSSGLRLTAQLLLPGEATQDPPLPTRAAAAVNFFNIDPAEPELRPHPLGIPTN
Chain of 5-hydroxytryptamine receptor 1B (P28222 whole entry): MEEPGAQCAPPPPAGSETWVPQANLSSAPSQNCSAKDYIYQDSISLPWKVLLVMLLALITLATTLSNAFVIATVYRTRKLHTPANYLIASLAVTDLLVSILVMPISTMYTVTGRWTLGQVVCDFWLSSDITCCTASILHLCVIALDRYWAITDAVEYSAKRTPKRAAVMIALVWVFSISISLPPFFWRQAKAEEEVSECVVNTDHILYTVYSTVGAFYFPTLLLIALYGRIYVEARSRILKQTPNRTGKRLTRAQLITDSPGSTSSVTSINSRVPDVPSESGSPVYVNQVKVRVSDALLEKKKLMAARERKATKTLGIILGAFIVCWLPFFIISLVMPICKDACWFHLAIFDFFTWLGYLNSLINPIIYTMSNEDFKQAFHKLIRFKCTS

As to `Fc1cccc2c1nc(OCC1CCN(CCC(F)(F)F)CC1)c1ccccc12`, the inhibition is 100% in test [1] and 61% in test [2]. Moreover, the inhibition constant Ki in test [3] worked out at 22 nM.

As for `Fc1cccc2c1nc(OCC1CCN(CC(F)(F)C(F)(F)F)CC1)c1ccccc12`, the inhibition stood at 4% in [1] and 0% in test [2].

`Fc1cccc2c1nc(OCC1CCN(CCCC(F)(F)F)CC1)c1ccccc12`: the inhibition in [1] came to 100%; in test [2], 49%. The compound further had a Ki in [3] of 14.1 nM.

Take `Fc1cccc2c1nc(OCC1CCN(CC(F)F)CC1)c1ccccc12`: the inhibition was found to be 93% in [1] and 0% in test [2].

Take `Fc1cccc2c1nc(OCC1CCN(CC(F)F)CC1)c1cccnc12`: the inhibition is 100% in test [1] and 26% in [2]. The compound also registered a Ki in test [3] of 91.4 nM.

As to `FC(F)(F)C(F)(F)CN1CCC(COc2nc3ccccc3c3ccccc23)CC1`, the inhibition is 1% in [1] and 0% in test [2].

On to `Fc1cccc2c1nc(OCC1CCN(CC(F)(F)F)CC1)c1ccccc12`, for which the figures for the inhibition in [1] and in [2] were 3% and 0%, respectively.

In the case of `FC(F)(F)CN1CCC(COc2nc3ccccc3c3ccccc23)CC1`, the results for the inhibition in test [1] and in test [2] were 1% and 0%, respectively.

Compound `Fc1cccc2c1nc(OCC1CCN(CCC(F)(F)F)CC1)c1cccnc12` registered a Kb in test [4] of 0.079 nM. Besides, the inhibition constant (Ki) in [5] was above 10000 nM; in test [6] it was above 10000 nM; in test [7], above 10000 nM; in test [8] it was above 10000 nM; in [9], 1200 nM; in [10], above 10000 nM. For the same compound, the Ki is 9 nM in [3]; above 10000 nM in [11]; 0.11 nM in test [12]; 230 nM in test [13]; above 10000 nM in test [14]; above 10000 nM in test [15]. Further, the inhibition in test [1] was 100%; in test [2], 80%.

For the compound `CCCN1CCC(COc2nc3c(F)cccc3c3ncccc23)CC1`, the inhibition in test [2] worked out at 94%.

Compound `Fc1cccc2c1nc(OCC1CCN(CCCC(F)(F)F)CC1)c1cccnc12` came in with a Kb in test [4] of 0.199 nM. Moreover, the inhibitory constant (Ki) in test [5] is above 10000 nM; in test [6] it was above 10000 nM; in [7], above 10000 nM; in test [8] it was 8700 nM; in [9], 2600 nM; in [10], 980 nM. Besides, the inhibitory constant (Ki) was 4.2 nM in test [3]; above 10000 nM in test [11]; 0.2 nM in test [12]; 190 nM in test [13]; above 10000 nM in test [14]; above 10000 nM in [15]. The results for the inhibition in [1] and in test [2] were 100% and 80%, respectively.

For the compound `FC(F)CN1CCC(COc2nc3ccccc3c3ccccc23)CC1`, the inhibition in [1] was 58%; in [2], 0%.

The inhibition is the relative decrease from the control value, in per cent. Low readings indicate a weak effect, high ones a strong effect. By Ki is commonly meant a dissociation constant, usually derived from enzyme kinetics or from competition with a known ligand.

The values above are taken from ChEMBL document CHEMBL3091289, “Design of fluorinated 5-HT(4)R antagonists: influence of the basicity and lipophilicity toward the 5-HT(4)R binding affinities” (Bioorg Med Chem, 2013).
